Patent publication US20220009920A1 (GB005, Inc., priority 2020, published 2022)

Assays:
Test in all cases: Large panel kinase profiling
Assay type in all cases: biochemical
Conditions in all cases: 1 μM test article, 1 mM ATP
[1] = target: T1, EIF2AK2/PKR (Homo sapiens, UniProt P19525)
T1 construct: AssayQuant Technologies, Inc. (service laboratory)
Method in brief: (§1)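 With ATP fixed at 1 mM, each kinase was exposed to 1 μM compound in a PhosphoSens CSox-Sensor reaction. Sealed plates were incubated at 30° C. and read in kinetic mode.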

[2] = target: T2, CDK2/E1 (Homo sapiens, UniProt P24941)
T2 construct: AssayQuant Technologies, Inc. (ran the panel)
Method in brief: as §1

[3] = target: T3, IKBKB/IKKB (Homo sapiens, UniProt O14920)
T3 construct: AssayQuant Technologies, Inc. (service provider)
T3 sequence (O14920 1-756): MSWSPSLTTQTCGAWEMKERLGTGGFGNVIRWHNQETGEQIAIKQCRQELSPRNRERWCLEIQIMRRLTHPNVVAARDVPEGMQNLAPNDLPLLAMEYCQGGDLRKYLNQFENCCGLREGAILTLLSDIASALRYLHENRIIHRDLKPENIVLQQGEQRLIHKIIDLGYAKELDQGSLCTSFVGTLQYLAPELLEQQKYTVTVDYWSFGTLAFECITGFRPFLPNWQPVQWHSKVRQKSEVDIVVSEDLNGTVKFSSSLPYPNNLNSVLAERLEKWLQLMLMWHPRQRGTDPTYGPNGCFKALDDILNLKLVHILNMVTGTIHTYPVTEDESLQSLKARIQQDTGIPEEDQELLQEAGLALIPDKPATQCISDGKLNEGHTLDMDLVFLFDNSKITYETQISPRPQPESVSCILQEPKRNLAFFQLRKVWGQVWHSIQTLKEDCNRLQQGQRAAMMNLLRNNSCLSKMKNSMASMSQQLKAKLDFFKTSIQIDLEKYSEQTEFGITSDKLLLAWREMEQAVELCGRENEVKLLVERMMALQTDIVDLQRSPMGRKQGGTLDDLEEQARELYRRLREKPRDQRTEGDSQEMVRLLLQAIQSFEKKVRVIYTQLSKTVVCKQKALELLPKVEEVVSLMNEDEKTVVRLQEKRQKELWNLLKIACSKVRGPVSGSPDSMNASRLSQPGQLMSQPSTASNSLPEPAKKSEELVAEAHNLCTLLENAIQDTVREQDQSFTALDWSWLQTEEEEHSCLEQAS
Method in brief: as §1

[4] = target: T4, MYLK2 (Homo sapiens, UniProt Q9H1R3)
T4 construct: AssayQuant Technologies, Inc. (assay service)
Method in brief: as §1

[5] = target: T5, TAOK2 (Homo sapiens, UniProt Q9UL54)
T5 construct: AssayQuant Technologies, Inc. (contract assay)
T5 sequence (Q9UL54 1-1235): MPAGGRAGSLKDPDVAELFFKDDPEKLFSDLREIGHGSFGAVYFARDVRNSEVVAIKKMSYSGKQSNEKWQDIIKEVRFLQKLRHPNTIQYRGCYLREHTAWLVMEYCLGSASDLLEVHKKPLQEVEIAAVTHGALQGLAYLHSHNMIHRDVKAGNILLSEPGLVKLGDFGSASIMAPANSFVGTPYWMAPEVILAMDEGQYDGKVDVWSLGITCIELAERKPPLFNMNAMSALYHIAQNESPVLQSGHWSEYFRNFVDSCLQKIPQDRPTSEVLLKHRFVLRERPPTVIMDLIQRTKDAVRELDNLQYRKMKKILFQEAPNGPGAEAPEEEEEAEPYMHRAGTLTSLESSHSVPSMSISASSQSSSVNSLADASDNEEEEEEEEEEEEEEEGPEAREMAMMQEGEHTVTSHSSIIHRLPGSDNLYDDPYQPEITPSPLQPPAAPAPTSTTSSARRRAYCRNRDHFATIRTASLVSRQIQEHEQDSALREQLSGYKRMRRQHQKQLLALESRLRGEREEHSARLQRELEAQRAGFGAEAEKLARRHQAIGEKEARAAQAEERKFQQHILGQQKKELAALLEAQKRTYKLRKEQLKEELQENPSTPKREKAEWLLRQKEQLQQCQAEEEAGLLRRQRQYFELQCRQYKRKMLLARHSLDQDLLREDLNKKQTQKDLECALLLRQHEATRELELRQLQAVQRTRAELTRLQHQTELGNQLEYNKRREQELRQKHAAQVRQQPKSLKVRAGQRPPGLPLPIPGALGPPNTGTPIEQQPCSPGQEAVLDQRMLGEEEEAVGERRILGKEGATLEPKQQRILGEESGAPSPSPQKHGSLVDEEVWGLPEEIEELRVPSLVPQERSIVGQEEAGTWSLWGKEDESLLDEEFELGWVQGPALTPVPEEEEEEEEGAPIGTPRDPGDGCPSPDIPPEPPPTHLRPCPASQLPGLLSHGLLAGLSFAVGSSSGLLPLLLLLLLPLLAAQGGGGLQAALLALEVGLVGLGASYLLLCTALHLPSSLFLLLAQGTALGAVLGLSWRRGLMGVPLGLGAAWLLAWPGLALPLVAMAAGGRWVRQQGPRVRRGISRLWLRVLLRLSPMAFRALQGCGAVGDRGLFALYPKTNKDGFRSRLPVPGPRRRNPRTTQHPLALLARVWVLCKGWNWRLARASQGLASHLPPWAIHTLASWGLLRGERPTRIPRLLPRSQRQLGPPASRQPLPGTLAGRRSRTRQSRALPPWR
Method in brief: as §1

T1 sequence (P19525 whole entry): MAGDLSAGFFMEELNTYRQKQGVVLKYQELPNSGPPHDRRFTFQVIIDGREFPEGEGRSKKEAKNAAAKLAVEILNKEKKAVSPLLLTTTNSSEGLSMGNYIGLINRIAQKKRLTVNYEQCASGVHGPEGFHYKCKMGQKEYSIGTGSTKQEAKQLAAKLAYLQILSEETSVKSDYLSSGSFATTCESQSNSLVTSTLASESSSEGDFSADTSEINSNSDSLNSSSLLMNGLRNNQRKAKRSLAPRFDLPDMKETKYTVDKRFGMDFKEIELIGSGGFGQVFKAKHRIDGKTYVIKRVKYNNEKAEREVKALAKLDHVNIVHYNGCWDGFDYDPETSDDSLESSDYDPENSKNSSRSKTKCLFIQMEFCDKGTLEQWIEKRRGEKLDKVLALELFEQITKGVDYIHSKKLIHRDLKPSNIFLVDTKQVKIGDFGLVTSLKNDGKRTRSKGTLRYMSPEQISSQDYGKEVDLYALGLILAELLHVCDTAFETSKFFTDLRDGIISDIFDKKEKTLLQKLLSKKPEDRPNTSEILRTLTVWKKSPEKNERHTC

## C=CC(=O)N1CCCC(c2c(F)cc(C(N)=O)c3[nH]c4c(c23)CCCCC4)C1 (single isomer, unassigned) [Compound 5-6]
[1]
  inhibition at 1 µM: -28%
[2]
  inhibition at 1 µM: -7.3%
[3]
  inhibition at 1 µM: 2.5%
[4]
  inhibition at 1 µM: 16.8%
[5]
  inhibition at 1 µM: -14.5%

## C=CC(=O)N1CCC[C@@H](c2c(F)cc(C(N)=O)c3[nH]c4c(c23)CC2(CC4)CC2)C1 [Compound 6-2, (S)-5-(1-acryloylpiperidin-3-yl)-6-fluoro-1,2,4,9-tetrahydrospiro[carbazole-3,1′-cyclopropane]-8-carboxamide]
[1]
  inhibition at 1 µM: -1.6%
[2]
  inhibition at 1 µM: -12.9%
[3]
  inhibition at 1 µM: -7.6%
[4]
  inhibition at 1 µM: -28.4%
[5]
  inhibition at 1 µM: -24.8%

## C=CC(=O)N1CCC[C@@H](c2c(F)cc(C(N)=O)c3[nH]c4c(c23)CCC4)C1 [Compound 10-2, (S)-8-(1-acryloylpiperidin-3-yl)-7-fluoro-1,2,3,4-tetrahydrocyclo-penta[b]indole-5-carboxamide]
[1]
  inhibition at 1 µM: 65.5%
[2]
  inhibition at 1 µM: 7%
[3]
  inhibition at 1 µM: -17%
[4]
  inhibition at 1 µM: -33.6%
[5]
  inhibition at 1 µM: 11.4%
